Measurements taken from paper PMC8163982, “Partial agonism improves the anti-hyperglycaemic efficacy of an oxyntomodulin-derived GLP-1R/GCGR co-agonist” (Molecular Metabolism, 2021).
Where a SMILES comes first, the peptide text is derived from it. [ ]: non-standard residue; d: D form. Aib = CC(C)(N)C(=O)O

Tests used:
GLP-1R [1] = target: T1, GLP-1R (Homo sapiens, UniProt P43220); experiment: NanoBiT β-arrestin-2 recruitment to GLP-1R-SmBiT in HEK293T cells; type: cell-based; details: SRB103 pair, mean ± SEM, n = 6; for Emax: HEK-293T, normalised to full agonist response, read-out: GLP-1R βarr2 (HEK293T) Emax; for EC50: 3-parameter fit, read-out: GLP-1R βarr2 (HEK293T) pEC50 (converted)
T1 sequence (P43220 24-463): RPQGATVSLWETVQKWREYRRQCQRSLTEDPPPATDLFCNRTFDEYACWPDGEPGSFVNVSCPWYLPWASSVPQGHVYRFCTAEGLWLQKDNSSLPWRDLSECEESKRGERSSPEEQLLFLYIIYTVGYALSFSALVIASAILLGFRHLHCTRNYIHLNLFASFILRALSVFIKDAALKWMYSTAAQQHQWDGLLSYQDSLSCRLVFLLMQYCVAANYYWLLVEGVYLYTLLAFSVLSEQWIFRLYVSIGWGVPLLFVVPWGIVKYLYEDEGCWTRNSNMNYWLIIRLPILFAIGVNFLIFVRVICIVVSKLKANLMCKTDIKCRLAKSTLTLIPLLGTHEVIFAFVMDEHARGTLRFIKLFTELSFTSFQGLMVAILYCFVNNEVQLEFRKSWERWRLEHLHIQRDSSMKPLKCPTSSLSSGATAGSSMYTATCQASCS
Experimental: The assay was performed as previously described. […] (gifts from Professor Nevin Lambert, Medical College of Georgia) or 0.05 μg of GLP-1R-SmBiT and 0.05 μg of LgBiT-β-arrestin-2 (Promega) plus 0.9 μg of pcDNA3.1 for 24 h. The cells were detached with EDTA, resuspended in HBSS, and furimazine (Promega) was added at a 1:50 dilution from the manufacturer's pre-prepared stock. After dispensing into 96-well white plates, a baseline read of the luminescent signals was serially recorded for 5 min using a FlexStation 3 instrument at 37 °C before the indicated concentration of ligand was added, after which the signals were repeatedly recorded for 30 min. […] Bias was calculated using two approaches. First, the log max/EC50 method was used, with the ratio of Emax to EC50 from 3-parameter fits for each ligand used to quantify agonism. After log10 transformation, responses were expressed relative to the reference agonist on a per assay basis to obtain Δlog(Emax/EC50) for each pathway. Pathway-specific values were then expressed relative to each other to obtain ΔΔlog(Emax/EC50), that is, the log bias factor. Second, a method derived from kinetic curve fitting was used. Here, kinetic responses for a single maximal agonist concentration were normalised at each time point to the vehicle response prior to curve fitting. Mini-Gs responses were fitted using the one-phase exponential association equation in Prism 8.0. β-arrestin-2 responses were fitted using the biexponential equation described in [29]. […] Pathway-specific values were then expressed relative to each other to obtain ΔΔlog kτ , that is, the log bias factor.

[2] = tested on: primary mouse hepatocytes; experiment: cAMP accumulation in primary mouse hepatocytes; type: cell-based; details: expressed relative to 10 μM forskolin response, mean ± SEM, n = 4; for cAMP 10 min (primary hepatocytes) Emax: 100 μM IBMX; for cAMP 16 h (primary hepatocytes) Emax: 100 μM IBMX for final 10 min
Experimental: Hepatocytes from adult male C57Bl/6J mice were isolated using collagenase perfusion. After filtering and washing, the cells were used to directly assay cAMP responses as described in the next section.
(§1) PathHunter cells were stimulated with the indicated concentration of agonist for 30 min at 37 °C in serum-free medium without phosphodiesterase inhibitors. INS-1 832/3 cells were stimulated with the indicated concentration of agonist for 10 min at 37 °C in serum-free medium with 100 μM of 3-isobutyl-1-methylxanthine (IBMX). Primary dispersed mouse islet cells prepared by triturating intact islets in 0.05% trypsin/EDTA for 3 min at 37 °C were stimulated with the indicated concentration of agonist for 5 min at 37 °C in serum-free medium with 11 mM of glucose and 500 μM of IBMX. Primary mouse hepatocytes were stimulated in serum-free medium with 100 μM of IBMX for 10 min or 16 h in serum-free medium with 100 μM of IBMX added for the final 10 min of incubation. Huh7-GCGR cells were stimulated in serum-free medium without phosphodiesterase inhibitors for 10 min or for 16 h in serum-free medium. Where relevant, forskolin (10 μM) was added as a positive or normalisation control. At the end of each incubation, cAMP was then assayed by HTRF (Cisbio cAMP Dynamic 2) and concentration-response curves were constructed with 3-parameter curve fitting using Prism 8.0.

recombinant DPP-4 = target: T2, recombinant DPP-4 (Homo sapiens, UniProt P27487); experiment: DPP-4 peptide degradation assay; type: in vitro ADME; details: 10 nmol peptide in 750 μl 100 mM Tris–HCl pH 8, 10 mU recombinant DPP-4, 37 °C, 1 or 24 h, intact peptide by RP-HPLC (C18), UV 214 nm, vs no-enzyme control, n = 3
T2 construct: purchased R&D Systems
T2 sequence (P27487 whole entry, species assumed): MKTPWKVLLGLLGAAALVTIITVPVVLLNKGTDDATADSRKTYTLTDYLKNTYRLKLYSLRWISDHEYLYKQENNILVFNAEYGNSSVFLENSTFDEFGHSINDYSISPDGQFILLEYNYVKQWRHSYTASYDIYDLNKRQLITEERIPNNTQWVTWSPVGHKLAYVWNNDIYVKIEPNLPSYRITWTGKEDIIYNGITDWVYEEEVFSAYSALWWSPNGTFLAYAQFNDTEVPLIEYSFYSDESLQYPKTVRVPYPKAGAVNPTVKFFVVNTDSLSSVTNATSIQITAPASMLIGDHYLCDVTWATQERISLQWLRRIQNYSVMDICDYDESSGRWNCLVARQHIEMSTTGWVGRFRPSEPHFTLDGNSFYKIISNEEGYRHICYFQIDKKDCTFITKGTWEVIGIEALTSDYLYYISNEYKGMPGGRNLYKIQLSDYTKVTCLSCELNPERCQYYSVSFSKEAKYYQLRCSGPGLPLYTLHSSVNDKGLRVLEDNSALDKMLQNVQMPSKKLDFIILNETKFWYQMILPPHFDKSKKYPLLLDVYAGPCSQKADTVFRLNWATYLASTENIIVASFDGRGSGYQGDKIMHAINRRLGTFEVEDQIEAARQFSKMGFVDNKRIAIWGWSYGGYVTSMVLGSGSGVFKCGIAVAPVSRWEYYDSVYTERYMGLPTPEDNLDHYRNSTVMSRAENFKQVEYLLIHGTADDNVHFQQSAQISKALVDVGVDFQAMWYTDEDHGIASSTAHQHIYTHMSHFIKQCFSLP
Experimental: Then, 10 mU of recombinant DPP-4 (R&D Systems) or no enzyme as a control for non-enzymatic degradation over the same time period was added to the reconstituted peptide. Reactions were incubated at 37 °C and 120 μl samples were collected from the reaction vessel at the indicated time points. Then, 5 μl of 10% trifluoroacetic acid (TFA) was added to each sample to terminate enzyme activity. The samples were analysed by reverse-phase high-performance liquid chromatography (HPLC) with a linear acetonitrile/water gradient acidified with 0.1% TFA on Phenomenex Aeris Peptide 3.6 μm XB-C18 columns (150 × 4.6 mm). The eluted peptides were detected at 214 nm. Peptide degradation was calculated by comparing the area under the peak of the original compound with and without enzyme.

[3] = Pharmacokinetic study in rats (SC with ZnCl2, plasma radioimmunoassay); type: in vivo, rat; details: 4 mg/kg SC with zinc, up to 72 h
Experimental: The mice were administered 0.5 mg/kg of peptide via IP injection. Four h after injection, blood was acquired by venesection into lithium heparin-coated microvette tubes (Sarstedt, Germany). In a separate study, male Sprague Dawley rats (average weight 250 g, obtained from Charles River) were administered 4 mg/kg of peptide SC mixed in aqueous ZnCl2 solution to a molar ratio of 0.7:1 (peptide:ZnCl2), and blood was collected by venesection at several time points up to 72 h. Plasma was separated by centrifugation at 10,000 g for 8 min at 4 °C. Plasma concentrations were assessed by radioimmunoassay using an in-house assay as previously described using standard curves generated from each SRB103 peptide to ensure that equivalent recovery was obtained.

GLP-1R [4] = target: T1, GLP-1R; experiment: cAMP production (HTRF) in PathHunter CHO-K1 cells expressing GLP-1R; type: cell-based; design: host or cells: PathHunter CHO-K1-βarr2-EA; details: 30 min, mean ± SEM, n = 6; for EC50: 37 °C, serum-free medium, no phosphodiesterase inhibitors, read-out: GLP-1R cAMP (CHO–K1) pEC50 (converted); for Emax: CHO-K1, normalised to globally fitted maximum response
Experimental: HEK293T cells were maintained in DMEM supplemented with 10% FBS and 1% penicillin/streptomycin. PathHunter CHO–K1-βarr2-EA cells stably expressing human GLP-1R, GCGR, or GIPR and PathHunter CHO–K1-βarr1-EA cells stably expressing GCGR were obtained from DiscoverX and maintained in Ham's F12 medium with 10% FBS and 1% penicillin/streptomycin. Stable HEK293-SNAP-GLP-1R cells were maintained in DMEM supplemented with 10% FBS, 1% penicillin/streptomycin, and 1 mg/ml of G418. INS-1 832/3 cells, a gift from Professor Chris Newgard (Duke University), were maintained in RPMI with 11 mM of glucose supplemented with 10% FBS, 10 mM of HEPES, 1 mM of pyruvate, 50 μM of β-mercaptoethanol, and 1% penicillin/streptomycin. Huh7 cells stably expressing human GCGR (Huh7-GCGR) were maintained in DMEM supplemented with 10% FBS, 1 mg/ml of G418, and 1% penicillin/streptomycin.
as §1

GCGR = GCGR (Homo sapiens, UniProt P47871); experiment: NanoBiT β-arrestin-2 recruitment to GCGR-SmBiT in HEK293T cells; type: cell-based; design: expressed in transfected cells; host or cells: HEK293T; details: SRB103 pair, mean ± SEM, n = 6; for Emax: HEK-293T, normalised to full agonist response, read-out: GCGR βarr2 (HEK293T) Emax; for EC50: 3-parameter fit, read-out: GCGR βarr2 (HEK293T) pEC50 (converted)
GCGR, sequence (P47871 26-477): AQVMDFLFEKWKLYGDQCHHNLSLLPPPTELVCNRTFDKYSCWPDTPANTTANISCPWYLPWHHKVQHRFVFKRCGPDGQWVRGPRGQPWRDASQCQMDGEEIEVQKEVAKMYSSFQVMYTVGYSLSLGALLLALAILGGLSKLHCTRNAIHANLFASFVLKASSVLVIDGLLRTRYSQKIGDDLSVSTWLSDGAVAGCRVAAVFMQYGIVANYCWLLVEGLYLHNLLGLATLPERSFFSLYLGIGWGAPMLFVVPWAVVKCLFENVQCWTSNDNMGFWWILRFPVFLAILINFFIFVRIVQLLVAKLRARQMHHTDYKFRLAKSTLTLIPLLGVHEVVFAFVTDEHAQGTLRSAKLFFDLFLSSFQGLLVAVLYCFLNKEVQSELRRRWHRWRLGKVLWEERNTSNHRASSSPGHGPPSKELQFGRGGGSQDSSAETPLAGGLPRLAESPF

| SMILES | Emax (GLP-1R [1]) | EC50 (GLP-1R [1]) | cAMP 10 min (primary hepatocytes) Emax [2] | cAMP 16 h (primary hepatocytes) Emax [2] | Resistance to DPP-4-mediated degradation (recombinant DPP-4) | Pharmacokinetics by serial plasma sampling [3] | EC50 (GLP-1R [4]) | Emax (GLP-1R [4]) | Emax (GCGR) | EC50 (GCGR) |
| --- | --- | --- | --- | --- | --- | --- | --- | --- | --- | --- |
| CC[C@H](C)[C@H](NC(=O)[C@H](Cc1ccccc1)NC(=O)[C@H](CCC(=O)O)NC(=O)[C@H](CCC(N)=O)NC(=O)[C@H](C)NC(=O)[C@H](CCCNC(=N)N)NC(=O)[C@H](CCCCN)NC(=O)[C@H](C)NC(=O)[C@H](CC(=O)O)NC(=O)[C@H](CC(C)C)NC(=O)[C@H](Cc1ccc(O)cc1)NC(=O)[C@H](CCCCN)NC(=O)[C@H](CO)NC(=O)[C@H](Cc1ccc(O)cc1)NC(=O)[C@H](CC(=O)O)NC(=O)[C@H](CO)NC(=O)[C@@H](NC(=O)[C@H](Cc1ccccc1)NC(=O)[C@@H](NC(=O)CNC(=O)[C@H](CCC(N)=O)NC(=O)C(C)(C)NC(=O)[C@@H](N)Cc1c[nH]cn1)[C@@H](C)O)[C@@H](C)O)C(=O)N[C@@H](CCC(=O)O)C(=O)N[C@@H](Cc1c[nH]c2ccccc12)C(=O)N[C@@H](CC(C)C)C(=O)N[C@@H](CC(C)C)C(=O)N[C@@H](C)C(=O)NCC(=O)N[C@@H](Cc1c[nH]cn1)C(=O)N[C@@H](Cc1c[nH]cn1)C(=O)N[C@@H](Cc1c[nH]cn1)C(=O)N[C@@H](Cc1c[nH]cn1)C(=O)N[C@@H](Cc1c[nH]cn1)C(=O)N1CCC[C@H]1C(=O)N[C@@H](CO)C(=O)N[C@@H](Cc1c[nH]c2ccccc12)C(=O)O [SRB103Q] (H-H[Aib]QGTFTSDYSKYLDAKRAQEFIEWLLAGHHHHHPSW-OH) | 60 ± 2% | 200 nM | 175 ± 12 | 200 ± 6 | highly resistant to DPP-4-mediated degradation | no obvious difference in pharmacokinetics | 0.316 nM | 103 ± 2% | 77 ± 2% | 50.1 nM |
| CC[C@H](C)[C@H](NC(=O)[C@H](Cc1ccccc1)NC(=O)[C@H](CCC(=O)O)NC(=O)[C@H](CCC(N)=O)NC(=O)[C@H](C)NC(=O)[C@H](CCCNC(=N)N)NC(=O)[C@H](CCCCN)NC(=O)[C@H](C)NC(=O)[C@H](CC(=O)O)NC(=O)[C@H](CC(C)C)NC(=O)[C@H](Cc1ccc(O)cc1)NC(=O)[C@H](CCCCN)NC(=O)[C@H](CO)NC(=O)[C@H](Cc1ccc(O)cc1)NC(=O)[C@H](CC(=O)O)NC(=O)[C@H](CO)NC(=O)[C@@H](NC(=O)[C@H](Cc1ccccc1)NC(=O)[C@@H](NC(=O)CNC(=O)[C@H](Cc1c[nH]cn1)NC(=O)C(C)(C)NC(=O)[C@@H](N)Cc1c[nH]cn1)[C@@H](C)O)[C@@H](C)O)C(=O)N[C@@H](CCC(=O)O)C(=O)N[C@@H](Cc1c[nH]c2ccccc12)C(=O)N[C@@H](CC(C)C)C(=O)N[C@@H](CC(C)C)C(=O)N[C@@H](C)C(=O)NCC(=O)N[C@@H](Cc1c[nH]cn1)C(=O)N[C@@H](Cc1c[nH]cn1)C(=O)N[C@@H](Cc1c[nH]cn1)C(=O)N[C@@H](Cc1c[nH]cn1)C(=O)N[C@@H](Cc1c[nH]cn1)C(=O)N1CCC[C@H]1C(=O)N[C@@H](CO)C(=O)N[C@@H](Cc1c[nH]c2ccccc12)C(=O)O [SRB103H] (H-H[Aib]HGTFTSDYSKYLDAKRAQEFIEWLLAGHHHHHPSW-OH) | 100% | 398 nM | 170 ± 7 | 206 ± 7 | highly resistant to DPP-4-mediated degradation | no obvious difference in pharmacokinetics | 0.316 nM | 99 ± 4% | 100% | 31.6 nM |
